{"source": "paper PMC10023780", "about": "“Insights into membrane association of the SMP domain of extended synaptotagmin” (Nature Communications, 2023)", "key": {"[1]": {"molecular_target": "T1, SMP domain of E-Syt1 (SMP) (Homo sapiens, UniProt Q9BSJ8)", "T1 construct": "gene ESYT1; SMP domain alone, residues 134-327, N-terminal His tag (pET-28a), dimer", "T1 sequence (Q9BSJ8 134-327)": "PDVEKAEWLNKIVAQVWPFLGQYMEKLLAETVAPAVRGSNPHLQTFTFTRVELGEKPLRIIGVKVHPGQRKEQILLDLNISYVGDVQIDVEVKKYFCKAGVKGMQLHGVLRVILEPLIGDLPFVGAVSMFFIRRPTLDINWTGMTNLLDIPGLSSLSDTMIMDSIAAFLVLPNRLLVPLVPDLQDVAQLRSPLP", "test": "FRET dequenching lipid transfer between liposomes", "assay_type": "biochemical", "details": "40-nm sorted ER-like donor and 800-nm PM-like acceptor liposomes, pH 7.4, 37 °C, Ca2+ not needed; Rhodamine-PE co-transferred; labelled compound"}, "SMP-C2AB of E-Syt1 [2]": {"molecular_target": "T2, SMP-C2AB of E-Syt1 (Homo sapiens, UniProt Q9BSJ8)", "T2 construct": "gene ESYT1; SMP-C2A-C2B fragment, residues 93-634, His-tagged (pCMV6-AN-His), Expi293 cells, Ni-NTA and gel filtration", "T2 sequence (Q9BSJ8 93-634)": "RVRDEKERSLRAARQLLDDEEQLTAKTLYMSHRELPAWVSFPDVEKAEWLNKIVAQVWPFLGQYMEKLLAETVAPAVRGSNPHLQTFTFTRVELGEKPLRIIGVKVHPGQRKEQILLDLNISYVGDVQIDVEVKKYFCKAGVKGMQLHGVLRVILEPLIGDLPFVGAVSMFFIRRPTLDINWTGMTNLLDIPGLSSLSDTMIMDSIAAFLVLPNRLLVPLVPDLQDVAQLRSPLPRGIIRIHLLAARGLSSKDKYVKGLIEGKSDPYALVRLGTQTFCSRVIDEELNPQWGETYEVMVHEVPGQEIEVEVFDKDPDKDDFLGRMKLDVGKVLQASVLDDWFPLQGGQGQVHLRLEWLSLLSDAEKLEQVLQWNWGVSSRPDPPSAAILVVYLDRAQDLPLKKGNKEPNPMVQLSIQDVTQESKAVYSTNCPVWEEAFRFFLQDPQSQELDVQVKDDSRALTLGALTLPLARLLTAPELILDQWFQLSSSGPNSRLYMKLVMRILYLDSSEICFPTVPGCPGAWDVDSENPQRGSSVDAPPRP", "test": "native PAGE, NBD fluorescence of protein band", "assay_type": "binding", "details": "protein 40 uM, 4 °C, 1 h; solubilized NBD-PE added in methanol; labelled compound"}, "full-length E-Syt1": {"molecular_target": "T3, full-length E-Syt1 (Homo sapiens, UniProt Q9BSJ8)", "T3 construct": "gene ESYT1; full length, residues 1-1104, His-tagged (pCMV6-AN-His), Expi293 cells, detergent-purified, reconstituted in ER-like liposomes", "T3 sequence (Q9BSJ8 1-1104)": "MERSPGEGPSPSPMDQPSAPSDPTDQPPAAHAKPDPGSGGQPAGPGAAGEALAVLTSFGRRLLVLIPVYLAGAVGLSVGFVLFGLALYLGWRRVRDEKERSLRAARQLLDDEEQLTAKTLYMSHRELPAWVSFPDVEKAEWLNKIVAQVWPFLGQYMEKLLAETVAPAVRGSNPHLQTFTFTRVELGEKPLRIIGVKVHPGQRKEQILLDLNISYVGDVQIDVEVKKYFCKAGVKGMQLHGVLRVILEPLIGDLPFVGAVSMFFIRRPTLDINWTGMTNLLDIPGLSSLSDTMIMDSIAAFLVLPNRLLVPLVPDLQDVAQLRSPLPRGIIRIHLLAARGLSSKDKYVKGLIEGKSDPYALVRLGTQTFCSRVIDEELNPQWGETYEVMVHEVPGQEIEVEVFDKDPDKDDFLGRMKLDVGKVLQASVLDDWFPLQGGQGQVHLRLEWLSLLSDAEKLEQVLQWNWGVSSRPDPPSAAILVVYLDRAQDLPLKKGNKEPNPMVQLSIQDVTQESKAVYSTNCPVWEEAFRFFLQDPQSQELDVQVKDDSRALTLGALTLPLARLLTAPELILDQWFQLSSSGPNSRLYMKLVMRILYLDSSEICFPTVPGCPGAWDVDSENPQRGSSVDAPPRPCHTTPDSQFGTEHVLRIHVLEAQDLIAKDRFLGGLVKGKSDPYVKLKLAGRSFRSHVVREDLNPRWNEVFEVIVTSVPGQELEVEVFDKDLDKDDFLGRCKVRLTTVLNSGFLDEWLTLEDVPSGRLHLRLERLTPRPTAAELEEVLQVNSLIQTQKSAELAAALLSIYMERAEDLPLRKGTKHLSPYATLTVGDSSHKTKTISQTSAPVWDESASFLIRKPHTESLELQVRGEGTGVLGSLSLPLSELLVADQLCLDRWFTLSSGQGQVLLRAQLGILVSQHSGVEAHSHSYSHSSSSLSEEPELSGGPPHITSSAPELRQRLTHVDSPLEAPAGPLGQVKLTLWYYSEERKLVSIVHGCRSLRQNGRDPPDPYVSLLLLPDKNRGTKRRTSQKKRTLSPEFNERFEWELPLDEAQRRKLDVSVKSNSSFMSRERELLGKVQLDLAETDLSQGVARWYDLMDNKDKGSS", "test": "FRET dequenching lipid transfer from proteoliposomes", "assay_type": "biochemical", "details": "Ca2+ present, 40-nm sorted ER-like proteoliposomes, 800-nm PM-like acceptors, pH 7.4, room temperature; labelled compound"}, "SMP-C2AB of E-Syt1 [3]": {"molecular_target": "T4, SMP-C2AB of E-Syt1 (Homo sapiens, UniProt Q9BSJ8, V169W/L308W)", "T4 construct": "gene ESYT1; SMP-C2A-C2B fragment, residues 93-634, His-tagged (pCMV6-AN-His), Expi293 cells, Ni-NTA and gel filtration", "T4 sequence (Q9BSJ8 93-634 V169W/L308W)": "T2 sequence (Q9BSJ8 93-634) with V77W, L216W", "test": "native PAGE, NBD fluorescence of protein band", "assay_type": "binding", "details": "protein 40 uM, 4 °C, 1 h; solubilized NBD-PE added in methanol; lipid cavity blocked; labelled compound"}, "E-Syt1cyto": {"molecular_target": "T5, E-Syt1cyto (Homo sapiens, UniProt Q9BSJ8)", "T5 construct": "gene ESYT1; cytosolic region, residues 93-1104, N-terminal hairpin region replaced by His tag (pCMV6-AN-His)", "T5 sequence (Q9BSJ8 93-1104)": "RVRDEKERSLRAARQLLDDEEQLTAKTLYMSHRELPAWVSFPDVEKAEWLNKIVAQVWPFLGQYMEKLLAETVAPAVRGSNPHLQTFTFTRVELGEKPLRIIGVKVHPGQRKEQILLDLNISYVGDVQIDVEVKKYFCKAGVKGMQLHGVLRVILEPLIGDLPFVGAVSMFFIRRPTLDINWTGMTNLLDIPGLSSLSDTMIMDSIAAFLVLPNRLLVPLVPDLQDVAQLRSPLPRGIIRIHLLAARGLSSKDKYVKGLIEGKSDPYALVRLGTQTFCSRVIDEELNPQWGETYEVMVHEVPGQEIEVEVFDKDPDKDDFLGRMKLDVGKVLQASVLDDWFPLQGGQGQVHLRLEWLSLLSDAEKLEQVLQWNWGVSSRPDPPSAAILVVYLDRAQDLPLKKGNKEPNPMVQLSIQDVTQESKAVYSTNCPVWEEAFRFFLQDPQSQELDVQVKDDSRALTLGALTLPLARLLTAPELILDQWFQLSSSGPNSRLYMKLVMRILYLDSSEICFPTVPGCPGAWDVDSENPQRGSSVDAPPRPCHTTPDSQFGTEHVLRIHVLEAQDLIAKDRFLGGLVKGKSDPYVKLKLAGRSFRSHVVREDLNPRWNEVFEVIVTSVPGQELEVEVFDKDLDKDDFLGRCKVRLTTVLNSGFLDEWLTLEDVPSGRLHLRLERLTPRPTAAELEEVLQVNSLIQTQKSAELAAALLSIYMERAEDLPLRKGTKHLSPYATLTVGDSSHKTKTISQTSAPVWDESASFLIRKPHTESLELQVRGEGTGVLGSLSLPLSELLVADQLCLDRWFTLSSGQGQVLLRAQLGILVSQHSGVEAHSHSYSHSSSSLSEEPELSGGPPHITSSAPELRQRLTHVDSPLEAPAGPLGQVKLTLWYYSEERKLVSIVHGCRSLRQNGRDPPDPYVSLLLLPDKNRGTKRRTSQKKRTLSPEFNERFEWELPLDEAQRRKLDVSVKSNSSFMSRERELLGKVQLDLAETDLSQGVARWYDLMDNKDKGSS", "test": "FRET dequenching lipid transfer between liposomes", "assay_type": "biochemical", "details": "Ca2+ present, His tag on DGS-NTA(Ni) ER-like donor liposomes, PM-like acceptors, pH 7.4; labelled compound"}, "SMP of E-Syt3": {"molecular_target": "T6, SMP of E-Syt3 (Homo sapiens, UniProt A0FGR9)", "T6 construct": "gene ESYT3; SMP domain alone, residues 113-304, His tag (pET-28a); full-length protein 886 residues", "T6 sequence (A0FGR9 113-304)": "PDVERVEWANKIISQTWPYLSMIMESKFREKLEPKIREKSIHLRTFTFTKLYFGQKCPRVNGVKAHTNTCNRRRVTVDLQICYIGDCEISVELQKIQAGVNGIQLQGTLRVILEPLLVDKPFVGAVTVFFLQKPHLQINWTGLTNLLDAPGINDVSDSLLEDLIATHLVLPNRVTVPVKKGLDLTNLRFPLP", "test": "FRET dequenching lipid transfer between liposomes", "assay_type": "biochemical", "details": "curved ER-like donor and PM-like acceptor liposomes, pH 7.4; labelled compound"}, "SMP of E-Syt2": {"molecular_target": "T7, SMP of E-Syt2 (Homo sapiens, UniProt A0FGR8)", "T7 construct": "gene ESYT2; SMP domain alone, residues 162-355, His tag (pET-28a), dimer", "T7 sequence (A0FGR8 162-355 isoform A0FGR8-2)": "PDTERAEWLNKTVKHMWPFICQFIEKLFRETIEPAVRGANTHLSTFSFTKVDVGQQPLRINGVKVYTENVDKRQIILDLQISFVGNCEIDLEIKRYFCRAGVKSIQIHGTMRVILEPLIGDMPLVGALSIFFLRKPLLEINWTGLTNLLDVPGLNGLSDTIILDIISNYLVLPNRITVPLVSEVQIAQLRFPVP", "test": "FRET dequenching lipid transfer between liposomes", "assay_type": "biochemical", "details": "curved ER-like donor and PM-like acceptor liposomes, pH 7.4; labelled compound"}, "SMP-C2AB of E-Syt1 [4]": {"molecular_target": "T8, SMP-C2AB of E-Syt1 (Homo sapiens, UniProt Q9BSJ8, K227E)", "T8 construct": "gene ESYT1; SMP-C2A-C2B fragment, residues 93-634, His-tagged (pCMV6-AN-His), Expi293 cells, Ni-NTA and gel filtration", "T8 sequence (Q9BSJ8 93-634 K227E)": "T2 sequence (Q9BSJ8 93-634) with K135E", "test": "native PAGE, NBD fluorescence of protein band", "assay_type": "binding", "details": "protein 40 uM, 4 °C, 1 h; solubilized NBD-PE added in methanol; labelled compound"}}, "note": "Where a chain is given by its changes, count along the chain named.", "data": [{"smiles": "CCCCCCCC/C=C\\CCCCCCCC(=O)OC[C@H](COP(=O)(O)OCCNc1ccc([N+](=O)[O-])c2nonc12)OC(=O)CCCCCCC/C=C\\CCCCCCCC", "note": "[NBD-PE, 1,2-dioleoyl-sn-glycero-3-phosphoethanolamine-N-(7-nitro-2-1,3-benzoxadiazol-4-yl)]", "values": [{"measurement": "FRET dequenching lipid transfer between liposomes", "setting": "[1]", "result": "40-nm sorted ER-like liposomes produced a robust lipid transfer level"}, {"measurement": "native PAGE, NBD fluorescence of protein band", "setting": "SMP-C2AB of E-Syt1 [2]", "result": "solubilized NBD-PE was loaded onto purified WT protein and K227E mutant"}, {"measurement": "FRET dequenching lipid transfer from proteoliposomes", "setting": "full-length E-Syt1", "result": "40-nm sorted ER-like proteoliposomes dramatically accelerated the lipid transfer by E-Syt1"}, {"measurement": "native PAGE, NBD fluorescence of protein band", "setting": "SMP-C2AB of E-Syt1 [3]", "result": "block the hydrophobic cavity of the SMP domain (V169W/L308W) impaired lipid harboring"}, {"measurement": "FRET dequenching lipid transfer between liposomes", "setting": "E-Syt1cyto", "result": "purified His-tagged E-Syt1cyto had comparable lipid transfer and membrane tethering levels as full-length E-Syt1"}, {"measurement": "FRET dequenching lipid transfer between liposomes", "setting": "SMP of E-Syt3", "result": "SMP domains of E-Syt2 and E-Syt3 showed similar membrane curvature- and charge-facilitated lipid transfer"}, {"measurement": "FRET dequenching lipid transfer between liposomes", "setting": "SMP of E-Syt2", "result": "SMP domains of E-Syt2 and E-Syt3 showed similar membrane curvature- and charge-facilitated lipid transfer"}, {"measurement": "native PAGE, NBD fluorescence of protein band", "setting": "SMP-C2AB of E-Syt1 [4]", "result": "NBD-PE was loaded onto purified WT protein and K227E mutant at a similar level"}]}]}
